Source: patent publication US9346813B2, “Substituted pyrrolo[2,3-d]pyrimindines as CDK9 kinase inhibitors” (AbbVie Inc., priority 2014, dated 2016)

Key:
[1] = target: T1, CDK9/Cyclin T1 (Homo sapiens, UniProt P50750); test: CDK9 enzyme protocol (LANCE ULight TR-FRET kinase assay); type: biochemical; conditions: 4 nM CDK9/Cyclin T1, 1000 μM ATP, 100 nM U-light MBP peptide, 30 minutes
T1 construct: purchased Carna Biosciences 04-110
Procedure: CDK9 enzyme activities were measured using LANCE ULight TR-FRET kinase assay reagents (PerkinElmer, Waltham, Mass.). Compounds were directly added in 100% DMSO to white low volume assay plates (Perkin Elmer Proxiplate 6008289) using a Labcyte Echo acoustic dispenser. Assay reagents in serine/threonine kinase assay buffer containing 20 mM HEPES, 10 mM MgCl2, 100 mM Na3VO4, and 0.0075% Triton X-100. were added for final reaction mixture concentrations of 1000 μM ATP, 100 nM U-light MBP peptide (Perkin Elmer TRF0109M) and reaction initiated with 4 nM CDK9/Cyclin T1 (Carna Biosciences 04-110). The kinase reaction was carried out for 30 minutes before addition of stopping buffer to a final of 20 mM EDTA and 0.5 nM of LANCE Ultra Europium anti-phospho-MBP antibody (PerkinElmer TRF0201M) in LANCE detection buffer (PerkinElmer CR97-100). The reaction was equilibrated for 1 hour and the signal read in the Perkin Elmer Envision in TR-FRET mode (excitation at 320 nm and emission at 615/665 nm).

[2] = test system: H929 cells; test: Cell viability assay in H929 cells (Cell TiterGlo); type: cell-based; conditions: Homo sapiens, NCI-H929, 24 hours at 37° C.
Procedure: Cell viability assays were performed using A431 or H929 cells. A431 cells were seeded in 96-well plates at 10,000 cells/well, and after overnight incubation, treated with compounds at 2-times the final concentration to result in a dose response of 3-fold dilutions from 10 μM to 0.0005 μM (50 μL/well, 0.1% final DMSO concentration). H929 cells were seeded in 96-well plates at 10,000 cells/well and treated immediately with compounds as described above. After 24 hours at 37° C., cell viability was measured using Cell TiterGlo reagent (Promega) with a luminescence reader. Alternately, cell viability assays were performed in 384-well format. A431 cells were seeded in 384-well plates at 2500 cells/well and, after overnight incubation, treated with compounds in a dose response of 3-fold dilutions from 10 μM to 0.0005 μM (25 nL/well, 0.1% final DMSO concentration). For the H929 viability assay, 25 nL/well of the compounds was dispensed into 384-well plates in a dose response as described above and cells were immediately seeded in 384-well plates at 2500 cells/well. After 24 hours at 37° C., cell viability was measured using Cell TiterGlo reagent (Promega) with a luminescence reader.

T1 sequence (P50750 whole entry): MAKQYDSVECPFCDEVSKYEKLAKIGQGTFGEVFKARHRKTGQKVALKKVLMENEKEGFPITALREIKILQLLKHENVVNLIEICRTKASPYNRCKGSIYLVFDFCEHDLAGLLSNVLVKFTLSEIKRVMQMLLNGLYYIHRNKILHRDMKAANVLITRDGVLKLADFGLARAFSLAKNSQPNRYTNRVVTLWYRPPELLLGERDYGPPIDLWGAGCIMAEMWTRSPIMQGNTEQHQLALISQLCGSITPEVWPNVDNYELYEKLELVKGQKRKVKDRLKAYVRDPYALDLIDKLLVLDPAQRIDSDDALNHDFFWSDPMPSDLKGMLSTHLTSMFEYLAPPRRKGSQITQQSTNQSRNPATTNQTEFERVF
T1 sequence (O60563 whole entry partner): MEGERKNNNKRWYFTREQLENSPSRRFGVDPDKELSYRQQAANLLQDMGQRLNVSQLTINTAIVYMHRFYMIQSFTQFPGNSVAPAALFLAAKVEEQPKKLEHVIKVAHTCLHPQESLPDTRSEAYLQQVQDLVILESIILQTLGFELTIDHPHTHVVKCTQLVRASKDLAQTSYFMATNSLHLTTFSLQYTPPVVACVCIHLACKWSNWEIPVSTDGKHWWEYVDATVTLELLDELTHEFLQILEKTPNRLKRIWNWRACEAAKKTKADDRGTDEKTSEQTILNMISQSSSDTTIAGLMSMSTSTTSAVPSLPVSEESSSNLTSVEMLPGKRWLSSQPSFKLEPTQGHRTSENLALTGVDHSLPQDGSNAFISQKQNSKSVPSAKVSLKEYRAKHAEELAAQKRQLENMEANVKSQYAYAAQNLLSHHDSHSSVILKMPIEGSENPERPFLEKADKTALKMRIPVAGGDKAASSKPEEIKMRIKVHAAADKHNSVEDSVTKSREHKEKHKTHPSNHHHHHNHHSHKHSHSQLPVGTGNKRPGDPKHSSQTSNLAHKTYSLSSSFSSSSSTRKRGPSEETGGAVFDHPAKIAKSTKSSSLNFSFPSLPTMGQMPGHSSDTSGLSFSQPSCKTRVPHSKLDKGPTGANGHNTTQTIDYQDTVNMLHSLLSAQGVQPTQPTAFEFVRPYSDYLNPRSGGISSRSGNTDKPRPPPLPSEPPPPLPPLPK

Compound	IC50 [1]	EC50 [2]
COc1ccc(F)cc1-c1ncnc2[nH]c(C3=CCN(Cc4ccnc(C(F)(F)F)c4)CC3)cc12 [Example 28, 4-(5-fluoro-2-methoxyphenyl)-6-(1-{[2-(trifluoromethyl)pyridin-4-yl]methyl}-1,2,3,6-tetrahydropyridin-4-yl)-7H-pyrrolo[2,3-d]pyrimidine]	220 nM	1000 nM
CS(=O)(=O)N1CC=C(c2cc3c(-c4cc(NCc5ccccc5)ccc4F)ncnc3[nH]2)CC1 [Example 29, N-benzyl-4-fluoro-3-{6-[1-(methylsulfonyl)-1,2,3,6-tetrahydropyridin-4-yl]-7H-pyrrolo[2,3-d]pyrimidin-4-yl}aniline]	130 nM	290 nM
CS(=O)(=O)N1CC=C(c2cc3c(-c4cc(NCc5ccc(C#N)cc5)ccc4F)ncnc3[nH]2)CC1 [Example 30, 4-{[(4-fluoro-3-{6-[1-(methylsulfonyl)-1,2,3,6-tetrahydropyridin-4-yl]-7H-pyrrolo[2,3-d]pyrimidin-4-yl}phenyl)amino]methyl}benzonitrile]	130 nM	230 nM
CS(=O)(=O)N1CC=C(c2cc3c(-c4cc(NCc5cccc(C#N)c5)ccc4F)ncnc3[nH]2)CC1 [Example 31, 3-{[(4-fluoro-3-{6-[1-(methylsulfonyl)-1,2,3,6-tetrahydropyridin-4-yl]-7H-pyrrolo[2,3-d]pyrimidin-4-yl}phenyl)amino]methyl}benzonitrile]	110 nM	160 nM
CS(=O)(=O)N1CC=C(c2cc3c(-c4cc(NCC5CCCO5)ccc4F)ncnc3[nH]2)CC1 (centres unmarked) [Example 32, 4-fluoro-3-{6-[1-(methylsulfonyl)-1,2,3,6-tetrahydropyridin-4-yl]-7H-pyrrolo[2,3-d]pyrimidin-4-yl}-N-(tetrahydrofuran-2-ylmethyl)aniline]	260 nM	3600 nM
COc1ccc(F)cc1-c1ncnc2[nH]c(C3=CCN(Cc4cccnc4)CC3)cc12 [Example 34, 4-(5-fluoro-2-methoxyphenyl)-6-[1-(pyridin-3-ylmethyl)-1,2,3,6-tetrahydropyridin-4-yl]-7H-pyrrolo[2,3-d]pyrimidine]	170 nM	630 nM
COc1ccc(F)cc1-c1ncnc2[nH]c(C3=CCN(Cc4cccc(F)c4)CC3)cc12 [Example 35, 6-[1-(3-fluorobenzyl)-1,2,3,6-tetrahydropyridin-4-yl]-4-(5-fluoro-2-methoxyphenyl)-7H-pyrrolo[2,3-d]pyrimidine]	150 nM	930 nM
COc1ccc(F)cc1-c1ncnc2[nH]c(C3=CCN(Cc4cc(F)cc(F)c4)CC3)cc12 [Example 36, 6-[1-(3,5-difluorobenzyl)-1,2,3,6-tetrahydropyridin-4-yl]-4-(5-fluoro-2-methoxyphenyl)-7H-pyrrolo[2,3-d]pyrimidine]	170 nM	1000 nM
CS(=O)(=O)N1CC=C(c2cc3c(-c4cc(NCc5ccncc5)ccc4F)ncnc3[nH]2)CC1 [Example 37, 4-fluoro-3-{6-[1-(methylsulfonyl)-1,2,3,6-tetrahydropyridin-4-yl]-7H-pyrrolo[2,3-d]pyrimidin-4-yl}-N-(pyridin-4-ylmethyl)aniline]	51 nM	329 nM
COc1ccc(F)cc1-c1ncnc2[nH]c(C3=CCN(S(=O)(=O)C4CCS(=O)(=O)C4)CC3)cc12 (centres unmarked) [Example 38, 6-{1-[(1,1-dioxidotetrahydrothiophen-3-yl)sulfonyl]-1,2,3,6-tetrahydropyridin-4-yl}-4-(5-fluoro-2-methoxyphenyl)-7H-pyrrolo[2,3-d]pyrimidine]	43 nM	376 nM
COc1ccc(F)cc1-c1ncnc2[nH]c(C3=CCN(CC4CCNCC4)CC3)cc12 [Example 39, 4-(5-fluoro-2-methoxyphenyl)-6-[1-(piperidin-4-ylmethyl)-1,2,3,6-tetrahydropyridin-4-yl]-7H-pyrrolo[2,3-d]pyrimidine]	210 nM	4740 nM
COc1ccc(F)cc1-c1ncnc2[nH]c(C3=CCN(S(=O)(=O)C(F)(F)F)CC3)cc12 [Example 40, 4-(5-fluoro-2-methoxyphenyl)-6-{1-[(trifluoromethyl)sulfonyl]-1,2,3,6-tetrahydropyridin-4-yl}-7H-pyrrolo[2,3-d]pyrimidine]	150 nM	669 nM
COc1ccc(Cl)cc1-c1ncnc2[nH]c(C3=CCN(S(C)(=O)=O)CC3)cc12 [Example 45, 4-(5-chloro-2-methoxyphenyl)-6-[1-(methylsulfonyl)-1,2,3,6-tetrahydropyridin-4-yl]-7H-pyrrolo[2,3-d]pyrimidine]	180 nM	> 10000 nM
COc1ccc(F)cc1-c1ncnc2[nH]c(C3=CCC(F)(F)CC3)cc12 [Example 61, 6-(4,4-difluorocyclohex-1-en-1-yl)-4-(5-fluoro-2-methoxyphenyl)-7H-pyrrolo[2,3-d]pyrimidine]	62 nM	1400 nM
COc1ccc(F)cc1-c1ncnc2[nH]c(C3=CCOCC3)cc12 [Example 65, 6-(3,6-dihydro-2H-pyran-4-yl)-4-(5-fluoro-2-methoxyphenyl)-7H-pyrrolo[2,3-d]pyrimidine]	69 nM	1000 nM
CCOc1ccc(F)cc1-c1ncnc2[nH]c(C3=CCN(Cc4ccc(NC(C)=O)cc4)CC3)cc12 [Example 68, N-[4-({4-[4-(2-ethoxy-5-fluorophenyl)-7H-pyrrolo[2,3-d]pyrimidin-6-yl]-3,6-dihydropyridin-1(2H)-yl}methyl)phenyl]acetamide]	200 nM	420 nM
COc1ccc(F)cc1-c1ncnc2[nH]c(C3=CCN(Cc4ccc(N)cc4)CC3)cc12 [Example 70, 4-({4-[4-(5-fluoro-2-methoxyphenyl)-7H-pyrrolo[2,3-d]pyrimidin-6-yl]-3,6-dihydropyridin-1(2H)-yl}methyl)aniline]	91 nM	160 nM
COC(=O)c1ccc(CN2CC=C(c3cc4c(-c5cc(F)ccc5OC)ncnc4[nH]3)CC2)cc1 [Example 71, methyl 4-({4-[4-(5-fluoro-2-methoxyphenyl)-7H-pyrrolo[2,3-d]pyrimidin-6-yl]-3,6-dihydropyridin-1(2H)-yl}methyl)benzoate]	110 nM	780 nM
COc1ccc(F)cc1-c1ncnc2[nH]c(C3=CCN(C(=O)[C@H]4CC[C@H](C(=O)OC)CC4)CC3)cc12 [Example 73, methyl trans-4-({4-[4-(5-fluoro-2-methoxyphenyl)-7H-pyrrolo[2,3-d]pyrimidin-6-yl]-3,6-dihydropyridin-1(2H)-yl}carbonyl)cyclohexanecarboxylate]	70 nM	150 nM
COc1ccc(F)cc1-c1ncnc2[nH]c(C3=CCN(C(=O)[C@H]4CC[C@H](C(=O)O)CC4)CC3)cc12 [Example 74, trans-4-({4-[4-(5-fluoro-2-methoxyphenyl)-7H-pyrrolo[2,3-d]pyrimidin-6-yl]-3,6-dihydropyridin-1(2H)-yl}carbonyl)cyclohexanecarboxylic acid]	110 nM	5900 nM
COc1ccc(F)cc1-c1ncnc2[nH]c(C3=CCN(C(=O)N(C)C)CC3)cc12 [Example 75, 4-[4-(5-fluoro-2-methoxyphenyl)-7H-pyrrolo[2,3-d]pyrimidin-6-yl]-N,N-dimethyl-3,6-dihydropyridine-1(2H)-carboxamide]	16 nM	600 nM
CN(C)C(=O)N1CC=C(c2cc3c(-c4cccc(F)c4F)ncnc3[nH]2)CC1 [Example 76, 4-[4-(2,3-difluorophenyl)-7H-pyrrolo[2,3-d]pyrimidin-6-yl]-N,N-dimethyl-3,6-dihydropyridine-1(2H)-carboxamide]	68 nM	3500 nM
COc1ccc(F)cc1-c1ncnc2[nH]c(C3=CCC(N[C@H](C(=O)O)C4CCCCC4)CC3)cc12 (stereo partly drawn) [Example 77, (2S)-cyclohexyl({4-[4-(5-fluoro-2-methoxyphenyl)-7H-pyrrolo[2,3-d]pyrimidin-6-yl]cyclohex-3-en-1-yl}amino)acetic acid]	290 nM	600 nM
COc1ccc(F)cc1-c1ncnc2[nH]c(C3=CCC(N[C@H](C(=O)O)C(C)C)CC3)cc12 (stereo partly drawn) [Example 78, N-{4-[4-(5-fluoro-2-methoxyphenyl)-7H-pyrrolo[2,3-d]pyrimidin-6-yl]cyclohex-3-en-1-yl}-L-valine]	750 nM	6800 nM
COc1ccc(F)cc1-c1ncnc2[nH]c(C3=CCC(C(=O)O)CC3)cc12 (centres unmarked) [Example 79, 4-[4-(5-fluoro-2-methoxyphenyl)-7H-pyrrolo[2,3-d]pyrimidin-6-yl]cyclohex-3-ene-1-carboxylic acid]	290 nM	6700 nM
